The values that follow come from patent publication US20250109162A1, “FLEX-NUCLEOSIDE ANALOGUES, NOVEL THERAPEUTICS AGAINST VIRUSES” (UNIVERSITY OF MARYLAND, BALTIMORE COUNTY, priority 2022, published 2025).

For data set [1], the system named is Chikungunya Virus, strain S27, ATCC VR-64. The data set can be described thus: microbe, parasite or virus in culture. The data set is classed as cell-based.
The subject of data set [2] is Vero cells. The note with it: African green monkey.
Data set [3] deals with Enterovirus. The data set can be described thus: microbe, parasite or virus in culture. The data set is classed as cell-based.
Data set [4] deals with Huh7 cells.
In data set [5] the test system is Akata cells. The settings on record: human.
For data set [6], the system named is Ebola Virus, strain Zaire. Type of data set: cell-based.
Data set [7] concerns Epstein-Barr virus, strain Akata. Briefly: microbe, parasite or virus in culture. The data set is classed as cell-based. The note with it: for EC90: read-out: EC90 - compound concentration that reduces viral replication by 90%.
The subject of data set [8] is HPV11 replicon. The data set is classed as cell-based, Human papillomavirus.
Data set [9] deals with HBV. Briefly: HBV (Tavis) EC50 (Table 8). The data set is classed as cell-based. The settings on record: Hepatitis B virus.
Data set [10] in a line: in vitro.
Data set [11] relates to EBOV (VP30, Huh). Briefly: microbe, parasite or virus in culture. The data set is classed as cell-based, Ebola Virus. The note with it: Zaire ebolavirus.
Data set [12] relates to HHV-6B, Z29. The data set can be described thus: microbe, parasite or virus in culture. The note with it: Human betaherpesvirus 6, MOLT-3. The data set is classed as cell-based, human herpesvirus 6.
Data set [13] can be described thus: Cytotoxicity in HBV (Tavis) assay (Table 8). Type of data set: cell-based.
The subject of data set [14] is BK, Gardner. The data set can be described thus: microbe, parasite or virus in culture. Type of data set: cell-based, BK virus (aka Human polyomavirus 1). The note with it: Betapolyomavirus hominis.
Data set [15] has as its system HVero 76 cells.
The subject of data set [16] is Vero 76 cells.
Data set [17] concerns MERS Coronavirus, strain EMC. Type of data set: cell-based.
The subject of data set [18] is Dengue Virus 2, strain New Guinea C. Type of data set: cell-based.
The test system of data set [19] is DENV2. The data set can be described thus: DENV2 IC50 (Table 8). Type of data set: cell-based, Dengue Virus 2. The settings on record: Dengue virus.
Data set [20] has as its system CHIKV. The data set can be described thus: CHIKV IC50 (Table 8). Type of data set: cell-based. The note with it: Chikungunya virus.
[21] abbreviates: human gammaherpesvirus 4, Akata.

pEC50, pIC50: −log10 of the molar value. Several values for one entry are separate records, joined by “and”; a condition that tells them apart may be missing. Equal values may be shown once. Read-outs that look alike come from different tables or passages of the source.

In the case of `Nc1nc(=O)n([C@@H]2C[C@@H](O)[C@H](CO)O2)cc1-c1ccco1` [CHK-05, 4-amino-5-(furan-2-yl)-1-((2S,4R,5S)-4-hydroxy-5-(hydroxymethyl)tetrahydrofuran-2-yl)pyrimidin-2(1H)-one], the pEC50 in data set [1] is less than 4.38; in data set [1] (Chikungunya virus), less than 4.17; in data set [3] it was 4.62; in data set [6] it was 4.74. In addition, the CC50 in [2], in data set [4] (human) and in [5] was greater than 100 µM each time. The EC90 in data set [7] (setting [21]) is greater than 100 µM.
Take `Nc1nc2c(ncn2CCOCP(=O)(O)O)c(=O)[nH]1` [PMEG]: the pEC50 in data set [8] is 5.04 to 5.70.
As for `Nc1ccn(C[C@@H](CO)OCP(=O)(O)O)c(=O)n1` [Cidofovir, reference compound], the pEC50 in [7] (read-out: EC50 - compound concentration that reduces viral replication by 50%) was 5.23. The EC90 in data set [7] was 73.5 µM.
As to `O=c1[nH]c(=O)n([C@@H]2C[C@@H](O)[C@H](CO)O2)cc1-c1cccs1` [CHK-02, 1-((2S,4R,5S)-4-hydroxy-5-(hydroxymethyl)tetrahydrofuran-2-yl)-5-(thiophen-2-yl)pyrimidine-2,4(1H,3H)-dione], the pEC50 is greater than 6.49 in [9]; 4.69 in data set [11]; 4.95 in data set [12]; greater than 7.32 in [14]; 4.97 in [7] (setting [21]). The values for the CC50 in [10] and in [13] were greater than 150 µM and greater than 32 µM, respectively.
As to `O=c1nc(NO)ccn1[C@@H]1O[C@H](CO)[C@@H](O)[C@H]1O` [EIDD-1931], the figures for the CC50 in data set [15] and in data set [16] were greater than 100 µg/mL and greater than 10 µg/mL, respectively. Also, the EC50 (usually the concentration needed to bring the measured effect to its halfway point) in data set [17] was 0.036 µg/mL and 0.034 µg/mL.
Take `C#C[C@@]1(O)[C@H](O)[C@@H](CO)O[C@H]1n1ccc2c(N)ncnc21` [NITD008]: the CC50 in data set [4] is greater than 100 µM. Also, the pEC50 in data set [18] is 6.44 and 6.37.
Turning to `Cc1ccc(-c2cn([C@@H]3C[C@@H](O)[C@H](CO)O3)c(=O)nc2N)o1` [CHK-08, 4-amino-1-((2S,4R,5S)-4-hydroxy-5-(hydroxymethyl)tetrahydrofuran-2-yl)-5-(5-methylfuran-2-yl)pyrimidin-2(1H)-one], in data set [19], the pIC50 (commonly −log10 of the IC50, conventionally taken in molar units) was 4.13.
On to `NC(=O)c1nc(F)c[nH]c1=O` [Favipiravir, reference compound], for which the CC50 in [2] was greater than 1000 µM.
Regarding `Cc1ccc(-c2cn([C@@H]3C[C@@H](O)[C@H](CO)O3)c(=O)[nH]c2=O)s1` [CHK-03, 1-((2S,4R,5S)-4-hydroxy-5-(hydroxymethyl)tetrahydrofuran-2-yl)-5-(5-methylthiophen-2-yl)pyrimidine-2,4(1H,3H)-dione], the CC50 in [5] was greater than 100 µM.
Regarding `Nc1nc(=O)n([C@@H]2C[C@@H](O)[C@H](CO)O2)cc1-c1cccs1` [CHK-06, 4-amino-1-((2S,4R,5S)-4-hydroxy-5-(hydroxymethyl)tetrahydrofuran-2-yl)-5-(thiophen-2-yl)pyrimidin-2(1H)-one], the pIC50 in data set [20] is 4.12.
